We go through 2 compounds from US7915245B2, “Methods and compositions of trail-death receptor agonists/activators” (The Board of Regents of the University of Texas System, priority 2007, dated 2011).

The subject of experiment [1] is pancreatic cancer AsPC-1 cells xenografted. As to the kind of experiment: AsPC-1 xenograft tumor growth. The following applies: 20, 40 mg/kg iv, 5 days per week. The format is in vivo, Balb c nude mice. The method, then: FIG. 27. […] AsPC-1 cells (2×10^6 cells as a 50% suspension in Matrigel, Becton Dickinson, Bedford, Mass., in a final volume of 0.1 ml) were injected subcutaneously in the right flank of Balb c nude mice. After tumor formation (about 100 mm^3), nude mice (10 per group) were treated (iv) with vehicle control (0.1 ml normal saline), DRA11 (20 mg/kg, 0.1 ml volume), and DRA11 (40 mg/kg, 0.1 ml volume) everyday 5 days per week throughout the duration of the experiment. Tumor volume was calculated using the equation: (volume=length×width×depth×0.5236 mm^3).
FIG. 31. […] MDA-MB-468 cells (2×10^6 cells, in a final volume of 0.1 ml PBS) were injected subcutaneously in the right flank of Balb c nude mice. […] Tumor volume was calculated using the equation: (volume=length×width×depth×0.5236 mm^3). […]
AsPC-1 cells (2×10^6 cells as a 50% suspension in Matrigel, Becton Dickinson, Bedford, Mass., in a final volume of 0.1 ml) were injected subcutaneously in the right flank of Balb c nude mice. […] Tumor volume was calculated using the equation: (volume=length×width×depth×0.5236 mm^3). […]
MDA-MB-468 cells (2×10^6 cells, in a final volume of 0.1 ml PBS) were injected subcutaneously in the right flank of Balb c nude mice. […] Tumor volume was calculated using the equation: (volume=length×width×depth×0.5236 mm^3). […]

For experiment [2], the system named is prostate cancer LNCaP cells xenografted. Nature of the experiment: LNCaP xenograft tumor growth. To be noted: 40 mg/kg iv, 5 days per week. It is filed as in vivo, Balb c nude mice. Here is the method: FIG. 28. […] LNCaP cells (2×10^6 cells as a 50% suspension in Matrigel, Becton Dickinson, Bedford, Mass., in a final volume of 0.1 ml) were injected subcutaneously in the right flank of Balb c nude mice. After tumor formation (about 100 mm^3), nude mice were treated (iv) with vehicle control (0.1 ml normal saline), and DRA9S (40 mg/kg, 0.1 ml volume) everyday 5 days per week throughout the duration of the experiment. Tumor volume was calculated using the equation: (volume=length×width×depth×0.5236 mm^3). Data represent mean±S.E.
LNCaP cells (2×10^6 cells as a 50% suspension in Matrigel, Becton Dickinson, Bedford, Mass., in a final volume of 0.1 ml) were injected subcutaneously in the right flank of Balb c nude mice. After tumor formation (about 100 mm^3), nude mice were treated (iv) with vehicle control (0.1 ml normal saline), and DRA9S (40 mg/kg, 0.1 ml volume) everyday 5 days per week throughout the duration of the experiment. Tumor volume was calculated using the equation: (volume=length×width×depth×0.5236 mm^3). See, for example, FIG. 28. Data represent mean ±S.E.

For experiment [3], the system named is breast cancer MDA-MB-468 cells xenografted. Nature of the experiment: MDA-MB-468 xenograft tumor growth. The format is in vivo, Balb c nude mice. The following applies: 40 mg/kg iv, 5 days per week. Here is the method:
FIG. 30. […] MDA-MB-468 cells (2×10^6 cells, in a final volume of 0.1 ml PBS) were injected subcutaneously in the right flank of Balb c nude mice. After tumor formation (about 100 mm^3), nude mice were treated (iv) with vehicle control (0.1 ml normal saline), and DRA9S (40 mg/kg, 0.1 ml volume) everyday 5 days per week throughout the duration of the experiment. Tumor volume was calculated using the equation: (volume=length×width×depth×0.5236 mm^3). Data represent mean±S.E.
MDA-MB-468 cells (2×10^6 cells, in a final volume of 0.1 ml PBS) were injected subcutaneously in the right flank of Balb c nude mice. After tumor formation (about 100 mm^3), nude mice were treated (iv) with vehicle control (0.1 ml normal saline), and DRA9S (40 mg/kg, 0.1 ml volume) everyday 5 days per week throughout the duration of the experiment. Tumor volume was calculated using the equation: (volume=length×width×depth×0.5236 mm^3). See, for example, FIG. 30. Data represent mean ±S.E.

Experiment [4] relates to mesothelioma M33K cell line. Nature of the experiment: XTT cell viability, mesothelioma M33K. The format is cell-based. The following applies: z-VAD-fmk 25 μM 2 h pretreatment, then DRA 72 h. The method, then: FIG. 53. […] M33K cells were pretreated with either control peptide (10 μM) or pan caspase inhibitor (z-VAD-fink, 25 μM) for 2 h, followed by treatment with various doses of DRA11, DRA9 and DRA9S for 72 h. At the end of incubation, cell viability was measured by XTT assay. Data represent the mean±S.D.
XTT Assay. Cells (1×10^4 cells per well) were seeded in 96-well plates (flat bottom), and treated with death receptor agonists/activators/small molecules in the presence or absence of TNF-related apoptosis inducing ligand (TRAIL). Plates were incubated for various time points at 37° C. and 5% CO2. Before the end of the experiment, 50 μl XTT (sodium 3′[1-(phenylaminocarbonyl)-3,4-tetrazolium]-bis(4-methoxy-6-nitro) benzene sulfonic acid hydrate) labeling mixture (final concentration, 125 μM sodium XTT and 25 μM PMS) per well was added and plates were incubated for a further 4 h at 37° C. and 5% CO2. The spectrophotometric absorbance of the sample was measured using a microtitre plate (ELISA) reader. The wavelength to measure absorbance of the formazan product was 450 nm, and the reference wavelength was 650 nm.
Background: Formazan colour is commonly taken as a measure of viable cells.

Consider `CCOc1cc(Br)c(Br)c(/C=N/c2cccc(C(=O)O)c2C)c1O` [DRA9S], for which the “growth of xenografted AsPC-1 tumors (tumor volume)” value in experiment [1] is reported as “inhibits growth”. The “growth of xenografted LNCaP tumors (tumor volume)” value in experiment [2] is “inhibits growth”. In addition, in experiment [3], the “growth of xenografted MDA-MB-468 tumors (tumor volume)” value is recorded as “inhibits growth”.

Regarding `CCOc1cc(Br)c(Br)c(/C=N/c2cccc(C(=O)O)c2)c1O` [DRA9], in experiment [4], the “effect of pan caspase inhibitor (z-VAD-fmk) on the inhibitory effect on cell viability” value is given as “blocks the inhibitory effects”.
